Earlier results, collected in article PMC8982769 (Open Forum Infectious Diseases, 2022).

Key:
[1] = up to 24 grams of parenteral HPβCD daily for 15 days
[2] = within 6 to 12 hours after IV administration
[3] = humans
VRE = settings: within 48 to 72 hours
[4] = test system: enterococci carrying vanA, vanB, and vanC genes; settings: in vitro

Row | dose recovered in the urine [2] [%] | Elimination half-life [3] [h] | MIC90 [4] [µg/mL] | Substance | side effects [1] | log kill (VRE) [log]
1 | 100 | 1.7 to 1.9 |  | 2-hydroxypropyl-β-cyclodextrin [HPβCD] | no side effects were observed | 
2 |  |  | ≤ 0.5 | Oritavancin diphosphate |  | > 3
